According to article PMC8672434 (Journal of the American Chemical Society, 2021):
Where “and” joins values, the source holds several entries; their conditions need not be identical. Identical values can stand only once. Like-named read-outs stand apart in the source and are kept apart here.

How the values were obtained:
SARS-CoV-2 M^pro [1] = target: T1, SARS-CoV-2 M^pro (Severe acute respiratory syndrome coronavirus 2, UniProt P0DTD1); assay: Fast dilution experiment; type: biochemical; conditions: 10 μM M^pro pre-incubated with 10 μM compound for 2 h at 30 °C, diluted 100-fold; compared with DMSO control
cathepsin B = cathepsin B (Homo sapiens, UniProt P07858); assay: Host protease selectivity, FRET-based enzymatic assay: cathepsin B; type: biochemical
trypsin = assay: Host protease selectivity, FRET-based enzymatic assay: trypsin; type: biochemical
cathepsin L = cathepsin L (Homo sapiens, UniProt P07711); assay: Host protease selectivity, FRET-based enzymatic assay: cathepsin L; type: biochemical; conditions: for Inhibition of cathepsin L (in words): host protease selectivity
caspase-3 = caspase-3 (Homo sapiens, UniProt P42574); assay: Host protease selectivity, FRET-based enzymatic assay: caspase-3; type: biochemical; conditions: for Inhibition of caspase-3 (in words): host protease selectivity
calpain I = calpain I (Homo sapiens, UniProt P07384); assay: Host protease selectivity, FRET-based enzymatic assay: calpain I; type: biochemical
cathepsin K = cathepsin K (Homo sapiens, UniProt P43235); assay: Host protease selectivity, FRET-based enzymatic assay: cathepsin K; type: biochemical
SARS-CoV-2 [2] = type: cell-based; conditions: read-out: Antiviral EC50 against SARS-CoV-2 in Vero E6 cells
SARS-CoV-2 M^pro [3] = target: T1, SARS-CoV-2 M^pro; type: cell-based; conditions: read-out: FlipGFP M^pro assay EC50
SARS-CoV-2 M^pro [4] = target: T1, SARS-CoV-2 M^pro; type: binding; conditions: native mass spectrometry
SARS-CoV-2 M^pro [5] = target: T1, SARS-CoV-2 M^pro; type: biochemical; conditions: read-out: SARS-CoV-2 M^pro IC50
SARS-CoV-2 M^pro [6] = target: T1, SARS-CoV-2 M^pro; assay: Thermal shift-binding assay; conditions: result in words
SARS-CoV-2 [7] = type: cell-based; conditions: read-out: Antiviral EC50 against SARS-CoV-2 in Calu-3 cells

Chain of caspase-3 (P42574 29-175): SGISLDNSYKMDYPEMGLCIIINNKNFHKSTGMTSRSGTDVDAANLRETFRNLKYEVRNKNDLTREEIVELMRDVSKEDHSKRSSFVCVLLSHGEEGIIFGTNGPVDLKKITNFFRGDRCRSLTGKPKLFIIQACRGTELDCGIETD
Chain of caspase-3 (P42574 176-277): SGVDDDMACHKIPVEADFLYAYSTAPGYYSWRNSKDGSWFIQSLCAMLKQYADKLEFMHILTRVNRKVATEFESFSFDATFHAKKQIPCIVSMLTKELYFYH
Chain of calpain I (P07384 whole entry): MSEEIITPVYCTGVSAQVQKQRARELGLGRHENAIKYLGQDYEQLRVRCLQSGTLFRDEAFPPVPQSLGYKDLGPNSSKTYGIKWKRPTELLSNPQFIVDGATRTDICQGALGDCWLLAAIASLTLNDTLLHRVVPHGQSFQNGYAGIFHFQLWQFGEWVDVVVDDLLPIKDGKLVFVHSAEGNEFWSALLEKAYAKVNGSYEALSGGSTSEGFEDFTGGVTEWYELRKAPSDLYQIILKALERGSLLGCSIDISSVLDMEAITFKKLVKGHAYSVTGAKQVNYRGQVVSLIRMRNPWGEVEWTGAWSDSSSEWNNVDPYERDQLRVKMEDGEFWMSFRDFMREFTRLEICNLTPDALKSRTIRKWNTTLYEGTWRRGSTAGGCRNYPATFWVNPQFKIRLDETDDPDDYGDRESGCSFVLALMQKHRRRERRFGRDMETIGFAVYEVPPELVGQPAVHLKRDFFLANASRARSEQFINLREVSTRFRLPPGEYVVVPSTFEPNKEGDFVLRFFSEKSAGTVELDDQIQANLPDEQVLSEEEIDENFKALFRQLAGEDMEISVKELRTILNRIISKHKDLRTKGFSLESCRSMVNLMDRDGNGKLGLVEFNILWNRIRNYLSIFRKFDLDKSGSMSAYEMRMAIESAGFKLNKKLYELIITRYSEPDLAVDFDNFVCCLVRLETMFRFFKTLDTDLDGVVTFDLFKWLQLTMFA
Chain of calpain I (P04632 whole entry, further chain): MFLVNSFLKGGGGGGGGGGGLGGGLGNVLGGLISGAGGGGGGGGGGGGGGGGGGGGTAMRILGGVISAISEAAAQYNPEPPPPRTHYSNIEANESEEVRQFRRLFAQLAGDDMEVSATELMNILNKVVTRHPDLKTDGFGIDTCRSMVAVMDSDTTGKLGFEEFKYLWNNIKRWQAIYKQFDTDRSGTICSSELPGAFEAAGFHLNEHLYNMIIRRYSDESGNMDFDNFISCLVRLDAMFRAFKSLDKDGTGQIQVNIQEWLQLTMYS
Chain of cathepsin L (P07711 114-333 limits assumed): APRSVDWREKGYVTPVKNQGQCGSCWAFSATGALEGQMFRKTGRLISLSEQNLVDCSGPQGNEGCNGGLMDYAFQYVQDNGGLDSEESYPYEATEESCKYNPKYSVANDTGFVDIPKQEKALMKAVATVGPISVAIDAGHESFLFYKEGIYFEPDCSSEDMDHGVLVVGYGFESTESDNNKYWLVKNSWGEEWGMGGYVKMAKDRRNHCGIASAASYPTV
Chain of cathepsin K (P43235 115-329): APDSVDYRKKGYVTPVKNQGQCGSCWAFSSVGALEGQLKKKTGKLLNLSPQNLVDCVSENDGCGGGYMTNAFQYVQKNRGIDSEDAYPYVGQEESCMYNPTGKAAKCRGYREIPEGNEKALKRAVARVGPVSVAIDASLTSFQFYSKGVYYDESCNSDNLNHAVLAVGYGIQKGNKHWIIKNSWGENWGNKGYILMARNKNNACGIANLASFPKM

For C[C@H](NC(=O)[C@@H](c1cccnc1)N(C(=O)c1ccco1)c1ccc(-c2ccccc2)cc1)c1ccccc1 [23R], the “Recovered enzymatic activity after 100-fold dilution” value (SARS-CoV-2 M^pro [1]) was “nearly complete recovery of enzymatic activity”.
For CC(C)C[C@H](NC(=O)OCc1ccccc1)C(=O)N[C@@H](CC1CCNC1=O)C(O)S(=O)(=O)[O-].[Na+] (stereo partly drawn) [GC-376, reference compound], the “Inhibition of cathepsin B (in words)” value (cathepsin B) was “potent inhibition”, the IC50 (trypsin; read-out: Trypsin IC50, FRET-based enzymatic assay) was […] and the “Inhibition of cathepsin L (in words)” value (cathepsin L) was “potent inhibition”. For the same compound, the IC50 (caspase-3; read-out: Caspase-3 IC50, FRET-based enzymatic assay) was greater than 20 µM, the “Inhibition of calpain I (in words)” value (calpain I) was “potent inhibition” and the “Inhibition of cathepsin K (in words)” value (cathepsin K) was “potent inhibition”. For the same compound, the EC50 (SARS-CoV-2 [2]) was 1.51 µM.
Work on CC#CC(=O)N(c1ccc(-c2ccccc2)cc1)C(C(=O)N[C@@H](C)c1ccccc1)c1cccnc1 (stereo partly drawn) [Jun9-62-1] yielded a CC50 (Calu-3 cells) of 47.8 µM and a CC50 (Vero E6 cells) of 18 µM.
C[C@H](NC(=O)[C@@H](c1cccnc1)N(C(=O)C(Cl)Cl)c1ccc(-c2ccccc2)cc1)c1ccccc1 [Jun9-62-2R] was tested, and the “Inhibition of cathepsin B (in words)” value (cathepsin B) was “did not show potent inhibition”, the “Inhibition of trypsin (in words)” value (trypsin) was “did not show potent inhibition” and the “Inhibition of cathepsin L (in words)” value (cathepsin L) was “did not show potent inhibition”. The EC50 (SARS-CoV-2 M^pro [3]) was 0.96 µM, the “Inhibition of caspase-3 (in words)” value (caspase-3) was “did not show potent inhibition” and the “Inhibition of calpain I (in words)” value (calpain I) was “did not show potent inhibition”. For the same compound, the “Mass modification of M^pro (covalent adduct)” value (from here on “Mass modification of M^pro”) (SARS-CoV-2 M^pro [4]) was 482 Da, the “Inhibition of cathepsin K (in words)” value (cathepsin K) was “did not show potent inhibition” and the EC50 (SARS-CoV-2 [2]) was 0.9 µM.
For C[C@H](NC(=O)[C@H](c1cccnc1)N(C(=O)C(Cl)Cl)c1ccc(-c2ccccc2)cc1)c1ccccc1 [Jun9-62-2S], the IC50 (SARS-CoV-2 M^pro [5]) was greater than 20 µM.
C[C@H](NC(=O)[C@@H](c1cccnc1)N(C(=O)C(Br)(Br)Br)c1ccc(-c2ccccc2)cc1)c1ccccc1 [Jun9-88-6R] was tested, and the “Inhibition of cathepsin B (in words)” value (cathepsin B) was “did not show potent inhibition”, the “Inhibition of cathepsin L (in words)” value (cathepsin L) was “did not show potent inhibition” and the IC50 (cathepsin L; read-out: Cathepsin L IC50, FRET-based enzymatic assay) was 7.37 µM. For the same compound, the “Tm shift of SARS-CoV-2 M^pro upon binding” value (“Tm shift” below) (SARS-CoV-2 M^pro [6]) was “stabilized”, the “Inhibition of caspase-3 (in words)” value (caspase-3) was “did not show potent inhibition” and the “Inhibition of calpain I (in words)” value (calpain I) was “did not show potent inhibition”. The “Mass modification of M^pro” value (SARS-CoV-2 M^pro [4]) was 526 Da, the “Inhibition of cathepsin K (in words)” value (cathepsin K) was “did not show potent inhibition” and the CC50 (Vero E6 cells) was 5.48 µM. It also gave an EC50 (SARS-CoV-2 [2]) of 0.58 µM.
C[C@H](NC(=O)[C@H](c1cccnc1)N(C(=O)C(Br)(Br)Br)c1ccc(-c2ccccc2)cc1)c1ccccc1 [Jun9-88-6S] was tested, and the CC50 (Vero E6 cells) was 5.99 µM.
For C[C@H](NC(=O)[C@@H](c1cccnc1)N(C(=O)C(Br)Br)c1ccc(-c2ccccc2)cc1)c1ccccc1 [Jun9-89-2R], the “Mass modification of M^pro” value (SARS-CoV-2 M^pro [4]) was 526 Da, the CC50 (Vero E6 cells) was 8.94 µM and the IC50 (SARS-CoV-2 M^pro [5]; FRET-based enzymatic assay) was 0.08 µM.
C[C@H](NC(=O)[C@H](c1cccnc1)N(C(=O)C(Br)Br)c1ccc(-c2ccccc2)cc1)c1ccccc1 [Jun9-89-2S] was tested, and the CC50 (Vero E6 cells) was 4.57 µM and the IC50 (SARS-CoV-2 M^pro [5]; FRET-based enzymatic assay) was 2.44 µM.
Work on C[C@H](NC(=O)C(c1cccnc1)N(C(=O)C(Cl)(Cl)Br)c1ccc(-c2ccccc2)cc1)c1ccccc1 (stereo partly drawn) [Jun9-89-3] yielded a CC50 (Vero E6 cells) of 32.4 µM.
For C[C@H](NC(=O)[C@@H](c1cccnc1)N(C(=O)C(Cl)(Br)Br)c1ccc(-c2ccccc2)cc1)c1ccccc1 [Jun9-89-4R], the “Mass modification of M^pro” value (SARS-CoV-2 M^pro [4]) was 481 Da and 561 Da and the CC50 (Vero E6 cells) was 8.41 µM.
For C[C@H](NC(=O)[C@@H](c1cccnc1)N(C(=O)C(Cl)Cl)c1ccc(-c2ccccc2)cc1)c1ccc(Br)cc1 [Jun9-90-3R], the “Tm shift” value (SARS-CoV-2 M^pro [6]) was “stabilized”, the EC50 (SARS-CoV-2 [2]) was 2.07 µM and the EC50 (SARS-CoV-2 [7]) was 2 µM.
In the case of C[C@H](NC(=O)[C@H](c1cccnc1)N(C(=O)C(Cl)Cl)c1ccc(-c2ccccc2)cc1)c1ccc(Br)cc1 [Jun9-90-3S], the IC50 (SARS-CoV-2 M^pro [5]) is reported as greater than 20 µM.
In the case of C[C@@H](CCc1ccccc1)NC(=O)[C@@H](c1cccnc1)N(C(=O)C(Cl)Cl)c1ccc(-c2ccccc2)cc1 [Jun9-90-4R], the “Tm shift” value (SARS-CoV-2 M^pro [6]) is reported as “stabilized” and the EC50 (SARS-CoV-2 [2]) is reported as 1.1 µM.
